# Literature values in patent US11607129B2, “Combined positron emission tomography (PET)-electron paramagnetic resonance (EPR) imaging device” (West Virginia University, priority 2018, dated 2023).
# System: mouse
# Settings: as confirmed by recent cytotoxicity studies; probe hydrophilic, remains extracellular
substance,measurement,value
phosphonated triarylmethyl radicals [pTAM],toxicity to the mouse,minimal toxicity
